Measurements taken from US20060069132A1, “Azolecarboxamide herbicides” (priority 2004, published 2006).

Tests used:
[1] = system: blackgrass; experiment: Test C postemergence herbicide test; assay type: in vivo, Alopecurus myosuroides
Experimental: (§1) At the same time, plants selected from these crop and weed species and also winter barley (Hordeum vulgare L.), blackgrass (Alopecurus myosuroides Huds.), canarygrass (Phalaris minor Retz.), chickweed (Stellaria media (L.) Vill.), downy bromegrass (Bromus tectorum L.), green foxtail (Setaria viridis (L.) Beauv.), Italian ryegrass (Lolium multiflorum Lam.), wheat (Triticum aestivum L.), wild oat (Avenafatua L.) and windgrass (Apera spica-venti (L.) Beauv.) were treated with postemergence applications of some of the test chemicals formulated in the same manner. Plants ranged in height from 2 to 18 cm (1- to 4-leaf stage) for postemergence treatments. Plant species in the flooded paddy test consisted of rice (Oryza sativa), smallflower umbrella sedge (Cyperus difformis L.), ducksalad (Heteranthera limosa (Sw.) Willd.) and barnyardgrass (Echinochloa crus-galli (L.) Beauv.) grown to the 2-leaf stage for testing. Treated plants and controls were maintained in a greenhouse for 12 to 14 days, after which time all species were compared to controls and visually evaluated. Plant response ratings, summarized in Table C, are based on a scale of 0 to 100 where 0 is no effect and 100 is complete control. A dash (-) response means no test result.

[2] = system: downy bromegrass; experiment: Test C postemergence herbicide test; assay type: in vivo, Bromus tectorum
Experimental: as §1

[3] = system: Italian ryegrass; experiment: Test C postemergence herbicide test; assay type: in vivo, Lolium multiflorum
Experimental: as §1

[4] = system: wild oat; experiment: Test C postemergence herbicide test; assay type: in vivo, Avenafatua
Experimental: as §1

[5] = system: windgrass; experiment: Test C postemergence herbicide test; assay type: in vivo, Apera spica-venti
Experimental: as §1

[6] = system: pitted morningglory; experiment: Test E pre-/postemergence herbicide test; assay type: in vivo, Ipomoea lacunosa; conditions: Preemergence
Procedure, shortened: (§2)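 Each species was compared with untreated controls 12 to 14 days after greenhouse application and assigned a visual score from 0 (no effect) to 100 (complete control). Applications were preemergence to seeded soil or postemergence to 1- to 4-leaf plants, using a solvent-plus-surfactant formulation.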

[7] = system: mustard; experiment: Test E pre-/postemergence herbicide test; assay type: in vivo, Brassica nigra; conditions: Preemergence
Procedure, shortened: as §2

[8] = system: prickly sida; experiment: Test E pre-/postemergence herbicide test; assay type: in vivo, Sida spinosa; conditions: Preemergence
Procedure, shortened: as §2

[9] = system: Italian ryegrass; experiment: Test E pre-/postemergence herbicide test; assay type: in vivo, Lolium multiflorum; conditions: Preemergence
Procedure, shortened: as §2

[10] = system: common chickweed; experiment: Test E pre-/postemergence herbicide test; assay type: in vivo, Stellaria media; conditions: Preemergence
Procedure, shortened: as §2

[11] = system: tropical spiderwort; experiment: Test E pre-/postemergence herbicide test; assay type: in vivo, Commelina benghalensis; conditions: Preemergence, scale 0 (no effect) to 100 (complete control)
Procedure, shortened: as §2

[12] = system: annual bluegrass; experiment: Test E pre-/postemergence herbicide test; assay type: in vivo, Poa annua; conditions: Preemergence
Procedure, shortened: as §2

[13] = system: Canada horseweed; experiment: Test E pre-/postemergence herbicide test; assay type: in vivo, Erigeron Canadensis; conditions: Preemergence
Procedure, shortened: as §2

[14] = system: common mallow; experiment: Test E pre-/postemergence herbicide test; assay type: in vivo, Malva sylvestris; conditions: Preemergence
Procedure, shortened: as §2

[15] = Postemergence, 250 g ai/ha, scale 0 to 100, 0 no effect, 100 complete control
[16] = postemergence, 125 g ai/ha, scale 0 to 100
[17] = postemergence, 62 g ai/ha, scale 0 to 100
[18] = Postemergence, 500 g ai/ha, scale 0 to 100, 0 no effect, 100 complete control
[19] = postemergence, 31 g ai/ha, scale 0 to 100
[20] = 250 g ai/ha, scale 0 (no effect) to 100 (complete control)
[21] = 500 g ai/ha, scale 0 (no effect) to 100 (complete control)

CCNC(=O)c1ccc(F)c(NC(=O)c2c3c(nn2CC)C(C)(C)CC3)c1 [Compound 353]
Blackgrass plant response rating ([1]; Postemergence, 500 g ai/ha, scale 0 to 100): 70
Plant response rating, Blackgrass [1, 15]: 60
Plant response rating, Blackgrass [1, 16]: 20
Plant response rating, Blackgrass [1, 17]: 0
Plant response rating, Bromegrass, Downy [2, 15]: 30
Plant response rating, Bromegrass, Downy [2, 18]: 35
Plant response rating, Bromegrass, Downy [2, 16]: 20
Plant response rating, Bromegrass, Downy [2, 17]: 10
Plant response rating, Ryegrass, Italian [3, 15]: 15
Plant response rating, Ryegrass, Italian [3, 18]: 20
Plant response rating, Ryegrass, Italian [3, 16]: 15
Plant response rating, Ryegrass, Italian [3, 17]: 10
Plant response rating, Oat, Wild [4, 15]: 40
Plant response rating, Oat, Wild [4, 18]: 60
Plant response rating, Oat, Wild [4, 16]: 30
Plant response rating, Oat, Wild [4, 17]: 10
Plant response rating, Windgrass [5, 15]: 10
Plant response rating, Windgrass [5, 18]: 10
Plant response rating, Windgrass [5, 16]: 10
Plant response rating, Windgrass [5, 17]: 0

CCOC(=O)c1cccc(NC(=O)c2nn(C(C)(C)CC)nc2CC)c1 [Compound 375]
Plant response rating, Blackgrass [1, 15]: 55
Plant response rating, Blackgrass [1, 16]: 45
Plant response rating, Blackgrass [1, 19]: 30
Plant response rating, Blackgrass [1, 17]: 35
Plant response rating, Bromegrass, Downy [2, 15]: 60
Plant response rating, Bromegrass, Downy [2, 16]: 60
Plant response rating, Bromegrass, Downy [2, 19]: 40
Plant response rating, Bromegrass, Downy [2, 17]: 60
Plant response rating, Ryegrass, Italian [3, 16]: 65
Plant response rating, Ryegrass, Italian [3, 17]: 65
Plant response rating, Oat, Wild [4, 16]: 55
Plant response rating, Oat, Wild [4, 17]: 45
Plant response rating, Windgrass [5, 16]: 60
Plant response rating, Windgrass [5, 17]: 40

CCc1nn(C(C)(C)C)nc1C(=O)Nc1cccc(C(=S)N(C)C)c1 [Compound 395]
Plant response rating, Morningglory ([6]; 62 g ai/ha, scale 0 to 100): 20
Plant response rating, Morningglory ([6]; 125 g ai/ha, scale 0 to 100): 40
Plant response rating, Morningglory [6, 20]: 75
Plant response rating, Morningglory [6, 21]: 75
Plant response rating, Black Mustard ([7]; 62 g ai/ha, scale 0 to 100): 40
Plant response rating, Black Mustard ([7]; 125 g ai/ha, scale 0 to 100): 60
Plant response rating, Black Mustard [7, 20]: 90
Plant response rating, Black Mustard [7, 21]: 95
Plant response rating, Prickly Sida ([8]; 62 g ai/ha, scale 0 to 100): 60
Plant response rating, Prickly Sida ([8]; 125 g ai/ha, scale 0 to 100): 95
Plant response rating, Prickly Sida [8, 20]: 95
Plant response rating, Prickly Sida [8, 21]: 95
Plant response rating, Ryegrass, Italian ([9]; 62 g ai/ha, scale 0 to 100): 20
Plant response rating, Ryegrass, Italian ([9]; 125 g ai/ha, scale 0 to 100): 80
Plant response rating, Ryegrass, Italian [9, 20]: 90
Plant response rating, Ryegrass, Italian [9, 21]: 95
Plant response rating, Chickweed ([10]; 125 g ai/ha, scale 0 to 100): 90
Plant response rating, Chickweed [10, 20]: 100
Plant response rating, Chickweed [10, 21]: 100
Plant response rating, Spiderwort ([11]; 250 g ai/ha): 60
Plant response rating, Spiderwort ([11]; 500 g ai/ha): 90
Plant response rating, Bluegrass ([12]; 62 g ai/ha, scale 0 to 100): 30
Plant response rating, Bluegrass ([12]; 125 g ai/ha, scale 0 to 100): 80
Plant response rating, Bluegrass [12, 20]: 95
Plant response rating, Bluegrass [12, 21]: 95
Plant response rating, Horseweed ([13]; 62 g ai/ha, scale 0 to 100): 90
Plant response rating, Horseweed ([13]; 125 g ai/ha, scale 0 to 100): 100
Plant response rating, Horseweed [13, 20]: 100
Plant response rating, Horseweed [13, 21]: 100
Plant response rating, Mallow ([14]; 62 g ai/ha, scale 0 to 100): 20
Plant response rating, Mallow ([14]; 125 g ai/ha, scale 0 to 100): 50
Plant response rating, Mallow [14, 21]: 60
